According to PubChem BioAssay AID248 (DTP/NCI, 2004):
Where “and” joins values, the source holds several entries; their conditions need not be identical. Equal values may be shown once. Inconclusive results and toxic doses are left out. No stated cut-off is given here; in the data, active means T/C of 150% or more; inactive means T/C below 125%.

Test system: L1210 leukemia ip in BDF1 mice, survival T/C
Test: NCI In Vivo Anticancer Drug Screen. Data for tumor model L1210 Leukemia (intraperitoneal) in B6D2F1 (BDF1) mice
Conditions: endpoint: mean survival time, higher = longer survival
Summary of the method: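 Transplantable tumor model; survival measured in treated vs vehicle control mice. Value = treated/control.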

[1] = dose: 100.0 mg/kg/injection, schedule: Q01DX001 (ip), vehicle: Klucel (hydroxypropylcellulose) (HPC)
[2] = dose: 200.0 mg/kg/injection, schedule: Q01DX001 (ip), vehicle: Klucel (hydroxypropylcellulose) (HPC)

Measured: T/C

O=C(N/N=C\c1ccc(Cl)cc1Cl)C1CC1
inactive: dose: 15.0 mg/kg/injection, schedule: Q01DX Z (ip), vehicle: carboxymethylcellulose (CMC) 97 % of control | dose: 30.0 mg/kg/injection, schedule: Q01DX Z (ip), vehicle: carboxymethylcellulose (CMC) 92 % of control | dose: 30.0 mg/kg/injection, schedule: Q01DX Z (oral), vehicle: carboxymethylcellulose (CMC) 98 % of control | dose: 60.0 mg/kg/injection, schedule: Q01DX Z (ip), vehicle: carboxymethylcellulose (CMC) 95 % of control | dose: 60.0 mg/kg/injection, schedule: Q01DX Z (oral), vehicle: carboxymethylcellulose (CMC) 100 % of control | dose: 120.0 mg/kg/injection, schedule: Q01DX Z (oral), vehicle: carboxymethylcellulose (CMC) 121 % of control

CC(=O)OCC1OC(N2C(=O)/C(=C/c3cccnc3)SC2=S)C(OC(C)=O)C(OC(C)=O)C1OC(C)=O (centres undefined)
inactive: dose: 25.0 mg/kg/injection, schedule: Q01DX005 (ip), vehicle: other 94 % of control | dose: 50.0 mg/kg/injection, schedule: Q01DX005 (ip), vehicle: other 96 % of control | dose: 100.0 mg/kg/injection, schedule: Q01DX005 (ip), vehicle: other 96 % of control | dose: 200.0 mg/kg/injection, schedule: Q01DX005 (ip), vehicle: other 105 % of control

CC(C)N(C(=O)Nc1cccc(F)c1)c1ccccc1
inactive: dose: 100.0 mg/kg/injection, schedule: Q01DX009 (ip), vehicle: gum acacia 96 % of control | dose: 200.0 mg/kg/injection, schedule: Q01DX009 (ip), vehicle: gum acacia 96 % of control | dose: 400.0 mg/kg/injection, schedule: Q01DX009 (ip), vehicle: gum acacia 90 % of control

CCCN(CCC)C(=O)CCl
inactive: dose: 100.0 mg/kg/injection, schedule: Q01DX001 (ip), vehicle: saline 109 % of control | dose: 200.0 mg/kg/injection, schedule: Q01DX001 (ip), vehicle: saline 95 % of control

CCOC(=O)c1sc2cc[nH]c2c1O
inactive: dose: 50.0 mg/kg/injection, schedule: Q01DX001 (ip), vehicle: Klucel (hydroxypropylcellulose) (HPC) 102 % of control | [1] 100 % of control | [2] 94 % of control

CCCn1c(=S)[nH]c2ccccc2c1=O
inactive: dose: 100.0 mg/kg/injection, schedule: Q01DX009 (ip), vehicle: saline 95 % of control | dose: 100.0 mg/kg/injection, schedule: Q04DX003 (ip), vehicle: saline 88 % of control | dose: 200.0 mg/kg/injection, schedule: Q01DX009 (ip), vehicle: saline 107 % of control | dose: 200.0 mg/kg/injection, schedule: Q04DX003 (ip), vehicle: saline 86 % of control | dose: 400.0 mg/kg/injection, schedule: Q01DX009 (ip), vehicle: saline 101 % of control | dose: 400.0 mg/kg/injection, schedule: Q04DX003 (ip), vehicle: saline 96 % of control

C/C=C(\C)C(N)=Nc1ccc(Cl)c(Cl)c1
inactive: dose: 55.0 mg/kg/injection, schedule: Q01DX Z (ip), vehicle: methylcellulose (MC) 106 % of control | dose: 83.0 mg/kg/injection, schedule: Q01DX Z (ip), vehicle: methylcellulose (MC) 102 % of control | dose: 125.0 mg/kg/injection, schedule: Q01DX Z (ip), vehicle: methylcellulose (MC) 102 % of control

Cc1ccc(CCOC(=O)c2cc([N+](=O)[O-])cc([N+](=O)[O-])c2)cc1
inactive: dose: 75.0 mg/kg/injection, schedule: Q01DX001 (ip), vehicle: carboxymethylcellulose (CMC) 94 % of control | dose: 150.0 mg/kg/injection, schedule: Q01DX001 (ip), vehicle: carboxymethylcellulose (CMC) 94 % of control | dose: 300.0 mg/kg/injection, schedule: Q01DX001 (ip), vehicle: carboxymethylcellulose (CMC) 90 % of control

Cc1ncc(C#N)n1C(C)c1ccccc1 (centres undefined)
inactive: [1] 103 % of control | [2] 100 % of control

CC(C)COC(=O)c1ccc(NC(=O)Nc2ccc(F)cc2)cc1
inactive: dose: 100.0 mg/kg/injection, schedule: Q01DX001 (ip), vehicle: carboxymethylcellulose (CMC) 99 % of control | dose: 100.0 mg/kg/injection, schedule: Q01DX009 (ip), vehicle: carboxymethylcellulose (CMC) 92 % of control and 97 % of control | dose: 100.0 mg/kg/injection, schedule: Q04DX002 (ip), vehicle: carboxymethylcellulose (CMC) 93 % of control and 103 % of control | dose: 100.0 mg/kg/injection, schedule: Q04DX003 (ip), vehicle: carboxymethylcellulose (CMC) 96 % of control | dose: 200.0 mg/kg/injection, schedule: Q01DX001 (ip), vehicle: carboxymethylcellulose (CMC) 87 % of control | dose: 200.0 mg/kg/injection, schedule: Q01DX009 (ip), vehicle: carboxymethylcellulose (CMC) 100 % of control and 90 % of control | dose: 200.0 mg/kg/injection, schedule: Q04DX002 (ip), vehicle: carboxymethylcellulose (CMC) 92 % of control and 91 % of control | dose: 200.0 mg/kg/injection, schedule: Q04DX003 (ip), vehicle: carboxymethylcellulose (CMC) 96 % of control | dose: 400.0 mg/kg/injection, schedule: Q01DX001 (ip), vehicle: carboxymethylcellulose (CMC) 96 % of control | dose: 400.0 mg/kg/injection, schedule: Q01DX009 (ip), vehicle: carboxymethylcellulose (CMC) 100 % of control | dose: 400.0 mg/kg/injection, schedule: Q04DX002 (ip), vehicle: carboxymethylcellulose (CMC) 100 % of control and 102 % of control | dose: 400.0 mg/kg/injection, schedule: Q04DX003 (ip), vehicle: carboxymethylcellulose (CMC) 95 % of control
